Test results from ChEMBL document CHEMBL5331123, “Potent Dual Inhibitors of Steroid Sulfatase and 17β-Hydroxysteroid Dehydrogenase Type 1 with a Suitable Pharmacokinetic Profile for In Vivo Proof-of-Principle Studies in an Endometriosis Mouse Model” (J Med Chem, 2023).
Values after ≈ are worked out from the molar mass of the structure shown.

Target: T1, Steryl-sulfatase (Homo sapiens, UniProt P08842)
T1 sequence (P08842 whole entry): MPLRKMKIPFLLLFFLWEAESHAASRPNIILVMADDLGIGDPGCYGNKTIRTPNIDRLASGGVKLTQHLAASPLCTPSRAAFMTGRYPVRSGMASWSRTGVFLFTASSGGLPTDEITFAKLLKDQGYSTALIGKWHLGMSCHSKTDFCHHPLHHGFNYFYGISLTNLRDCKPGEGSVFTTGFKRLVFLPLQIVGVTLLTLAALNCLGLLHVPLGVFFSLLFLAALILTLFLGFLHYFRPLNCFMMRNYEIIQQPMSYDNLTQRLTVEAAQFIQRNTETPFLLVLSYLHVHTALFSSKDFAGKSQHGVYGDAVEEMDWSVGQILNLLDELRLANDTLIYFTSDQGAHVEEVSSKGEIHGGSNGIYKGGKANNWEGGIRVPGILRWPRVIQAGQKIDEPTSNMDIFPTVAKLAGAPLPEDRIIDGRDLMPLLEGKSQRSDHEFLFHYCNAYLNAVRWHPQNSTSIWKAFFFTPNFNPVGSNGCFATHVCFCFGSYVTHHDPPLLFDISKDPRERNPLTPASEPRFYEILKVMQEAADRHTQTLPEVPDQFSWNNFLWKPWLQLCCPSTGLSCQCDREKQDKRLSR
Assay: Inhibition of human STS expressed in human T47D cells using [3H]E1S as substrate incubated for 1 hr followed by substrate addition measured after 24 hrs in presence of E1S by HPLC analysis
Type: cell-based
Conditions: not given; call rule not given here

SMILES	IC50
Cc1cc(OS(N)(=O)=O)ccc1N(C)C(=O)c1ccc(-c2cc(C)c(O)c(C)c2)o1	0.4 µM
Cc1cc(-c2ccc(C(=O)N(C)c3ccc(OS(N)(=O)=O)c(Cl)c3)o2)cc(C)c1O	0.038 µM

Target: T2, 17-beta-hydroxysteroid dehydrogenase type 1 (Homo sapiens, UniProt P14061)
T2 sequence (P14061 whole entry): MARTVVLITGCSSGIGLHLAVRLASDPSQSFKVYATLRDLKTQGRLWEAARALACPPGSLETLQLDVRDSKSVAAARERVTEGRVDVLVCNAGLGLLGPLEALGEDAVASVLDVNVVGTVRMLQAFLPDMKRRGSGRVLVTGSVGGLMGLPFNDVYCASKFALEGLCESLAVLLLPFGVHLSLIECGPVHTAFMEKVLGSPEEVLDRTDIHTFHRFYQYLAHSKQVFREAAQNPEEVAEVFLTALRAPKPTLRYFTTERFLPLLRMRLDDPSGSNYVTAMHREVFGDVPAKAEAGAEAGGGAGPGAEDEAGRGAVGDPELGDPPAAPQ
Assay: Inhibition of human 17beta-HSD1 expressed in human T47D cells using [3H]E1 as substrate incubated for 1 hr followed by substrate addition measured after 40 mins in presence of E1 by HPLC analysis
Type: cell-based
Conditions: not given

SMILES	IC50
Cc1cc(OS(N)(=O)=O)ccc1N(C)C(=O)c1ccc(-c2cc(C)c(O)c(C)c2)o1	0.011 µM
Cc1cc(-c2ccc(C(=O)N(C)c3ccc(OS(N)(=O)=O)c(Cl)c3)o2)cc(C)c1O	0.088 µM

System: not listed separately
Assay: Metabolic stability in human liver S9 fraction assessed as half life measured upto 60 mins in presence of NADPH by LC-MS/MS analysis
Type: ADME, subcellular
Conditions: liver S9 fraction

SMILES	half-life
Cc1cc(OS(N)(=O)=O)ccc1N(C)C(=O)c1ccc(-c2cc(C)c(O)c(C)c2)o1	1.42 h

System: not listed separately
Assay: Metabolic stability in mouse liver S9 fraction assessed as half life measured upto 60 mins in presence of NADPH by LC-MS/MS analysis
Type: ADME, subcellular
Conditions: liver S9 fraction

SMILES	half-life
Cc1cc(OS(N)(=O)=O)ccc1N(C)C(=O)c1ccc(-c2cc(C)c(O)c(C)c2)o1	0.935 h

Target: T2, 17-beta-hydroxysteroid dehydrogenase type 1
Assay: Inhibition of human placental cytosolic fraction 17beta-HSD1 using [3H]E1 as substrate measured after 10 mins in presence of NADH by HPLC analysis
Type: tissue-based, Placenta
Conditions: not given

SMILES	IC50
Cc1cc(OS(N)(=O)=O)ccc1N(C)C(=O)c1ccc(-c2cc(C)c(O)c(C)c2)o1	0.043 µM
Cc1cc(-c2ccc(C(=O)N(C)c3ccc(OS(N)(=O)=O)c(Cl)c3)o2)cc(C)c1O	0.4 µM

Target: T3, 17-beta-hydroxysteroid dehydrogenase type 2 (Homo sapiens, UniProt P37059)
T3 sequence (P37059 whole entry): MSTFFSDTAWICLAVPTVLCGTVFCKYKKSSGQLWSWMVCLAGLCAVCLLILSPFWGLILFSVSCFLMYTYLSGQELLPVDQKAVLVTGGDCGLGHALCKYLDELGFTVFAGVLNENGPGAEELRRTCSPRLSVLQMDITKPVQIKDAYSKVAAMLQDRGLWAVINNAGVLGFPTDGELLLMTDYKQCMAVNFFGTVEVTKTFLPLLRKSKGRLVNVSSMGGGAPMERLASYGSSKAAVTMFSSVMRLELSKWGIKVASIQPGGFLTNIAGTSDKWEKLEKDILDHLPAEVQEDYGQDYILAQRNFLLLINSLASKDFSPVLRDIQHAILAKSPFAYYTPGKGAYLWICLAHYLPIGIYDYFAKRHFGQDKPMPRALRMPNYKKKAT
Assay: Inhibition of human placental microsomal fraction 17beta-HSD2 using [3H]E2 as substrate measured after 20 mins in presence of NAD+ by HPLC analysis
Type: microsomes, Placenta, Microsome
Conditions: not given

SMILES	IC50
Cc1cc(OS(N)(=O)=O)ccc1N(C)C(=O)c1ccc(-c2cc(C)c(O)c(C)c2)o1	6.2 µM
Cc1cc(-c2ccc(C(=O)N(C)c3ccc(OS(N)(=O)=O)c(Cl)c3)o2)cc(C)c1O	2.4 µM

Species on record: Homo sapiens
Assay: Selectivity ratio of IC50 for human placental microsomal fraction 17beta-HSD2 to IC50 for human placental microsomal fraction 17beta-HSD1
Conditions: not given

SMILES	Ratio IC50
Cc1cc(OS(N)(=O)=O)ccc1N(C)C(=O)c1ccc(-c2cc(C)c(O)c(C)c2)o1	145
Cc1cc(-c2ccc(C(=O)N(C)c3ccc(OS(N)(=O)=O)c(Cl)c3)o2)cc(C)c1O	6

Target: T1, Steryl-sulfatase
Assay: Irreversible inhibition of human STS expressed in human T47D cells using [3H]E1S as substrate preincubated for 2 hr followed by substrate addition measured after 24 hrs in presence of E1S by HPLC analysis
Type: cell-based
Conditions: not given

SMILES	IC50
Cc1cc(OS(N)(=O)=O)ccc1N(C)C(=O)c1ccc(-c2cc(C)c(O)c(C)c2)o1	0.42 µM

System: not listed separately
Assay: Metabolic stability in human liver S9 fraction assessed as intrinsic clearance measured upto 60 mins in presence of NADPH by LC-MS/MS analysis
Type: ADME, subcellular
Conditions: read-out: CLH

SMILES	microsomal CLint
Cc1cc(OS(N)(=O)=O)ccc1N(C)C(=O)c1ccc(-c2cc(C)c(O)c(C)c2)o1	8.2 µL/min/mg

System: HEK293
Assay: Cytotoxicity against HEK293 cells assessed as cell growth inhibition by measuring lethal concentration measured after 72 hrs by MTT assay
Type: functional, Homo sapiens
Conditions: not given

SMILES	LC20
Cc1cc(OS(N)(=O)=O)ccc1N(C)C(=O)c1ccc(-c2cc(C)c(O)c(C)c2)o1	<=31 uM

System: HepG2
Assay: Cytotoxicity against human HepG2 cells assessed as cell growth inhibition by measuring lethal concentration measured after 48 hrs by MTT assay
Type: functional
Conditions: not given

SMILES	LC20
Cc1cc(OS(N)(=O)=O)ccc1N(C)C(=O)c1ccc(-c2cc(C)c(O)c(C)c2)o1	23 µM

Target: T4, Aryl hydrocarbon receptor (Homo sapiens, UniProt P35869)
T4 sequence (P35869 whole entry): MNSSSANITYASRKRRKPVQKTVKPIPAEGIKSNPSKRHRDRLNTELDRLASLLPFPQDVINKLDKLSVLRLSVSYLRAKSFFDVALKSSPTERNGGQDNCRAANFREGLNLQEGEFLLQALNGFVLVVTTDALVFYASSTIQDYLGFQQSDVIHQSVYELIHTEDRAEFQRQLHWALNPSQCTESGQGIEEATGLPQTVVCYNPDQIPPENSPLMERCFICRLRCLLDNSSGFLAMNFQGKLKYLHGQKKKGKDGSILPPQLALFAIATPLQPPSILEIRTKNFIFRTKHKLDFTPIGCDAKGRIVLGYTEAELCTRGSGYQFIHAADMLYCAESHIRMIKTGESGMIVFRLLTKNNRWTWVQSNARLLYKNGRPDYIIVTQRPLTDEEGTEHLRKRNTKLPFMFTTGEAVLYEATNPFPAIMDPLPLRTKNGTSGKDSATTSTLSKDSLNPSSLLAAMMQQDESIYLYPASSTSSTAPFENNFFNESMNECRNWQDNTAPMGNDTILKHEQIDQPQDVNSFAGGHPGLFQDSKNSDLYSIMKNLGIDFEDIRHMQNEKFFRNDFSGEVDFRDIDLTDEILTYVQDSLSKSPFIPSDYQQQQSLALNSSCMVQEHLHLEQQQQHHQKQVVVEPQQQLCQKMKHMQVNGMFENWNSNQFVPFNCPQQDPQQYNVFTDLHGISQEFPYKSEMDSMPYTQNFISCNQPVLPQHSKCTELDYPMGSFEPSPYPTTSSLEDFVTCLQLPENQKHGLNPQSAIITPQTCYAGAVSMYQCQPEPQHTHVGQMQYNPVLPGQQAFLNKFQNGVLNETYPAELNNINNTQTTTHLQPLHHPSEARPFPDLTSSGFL
Assay: Activation of AhR in human HepG2 cells assessed as increase in CYP1A1 activity at 3.16 uM measured after 48 hrs by fluorescence based analysis
Type: cell-based
Conditions: hepg2, 48 h

SMILES	Activity
Cc1cc(OS(N)(=O)=O)ccc1N(C)C(=O)c1ccc(-c2cc(C)c(O)c(C)c2)o1	Not Active

System: not listed separately
Assay: Observed Cmax in C57BL/6 mouse at 50 mg/kg, sc administered as single dose measured upto 24 hrs by HPLC-MS/MS analysis
Type: ADME, organism-based
Design: time < 24 hrs, dose 50 mg/kg, route sc
Conditions: in vivo

SMILES	Cmax
Cc1cc(OS(N)(=O)=O)ccc1N(C)C(=O)c1ccc(-c2cc(C)c(O)c(C)c2)o1	2820 nM

System: not listed separately
Assay: Drug concentration in C57BL/6 mouse at 50 mg/kg, sc administered as single dose measured after 24 hrs by HPLC-MS/MS analysis
Type: ADME, organism-based
Conditions: in vivo, read-out: Drug uptake

SMILES	concentration at 24 h
Cc1cc(OS(N)(=O)=O)ccc1N(C)C(=O)c1ccc(-c2cc(C)c(O)c(C)c2)o1	797 nM

System: not listed separately
Assay: Half life in C57BL/6 mouse at 50 mg/kg, sc administered as single dose measured after 24 hrs by HPLC-MS/MS analysis
Type: ADME, organism-based
Conditions: in vivo

SMILES	half-life
Cc1cc(OS(N)(=O)=O)ccc1N(C)C(=O)c1ccc(-c2cc(C)c(O)c(C)c2)o1	3.82 h

System: not listed separately
Assay: AUC(0 to 24 hrs) in C57BL/6 mouse at 50 mg/kg, sc administered as single dose measured after 24 hrs by HPLC-MS/MS analysis
Type: ADME, organism-based
Design: time 24 hrs, dose 50 mg/kg, route sc
Conditions: in vivo

SMILES	AUC(0-t) at 24 h
Cc1cc(OS(N)(=O)=O)ccc1N(C)C(=O)c1ccc(-c2cc(C)c(O)c(C)c2)o1	11600 ng·h/mL

System: not listed separately
Assay: Lipophilicity, logD of compound at pH 7.4
Type: physicochemical
Conditions: buffer

SMILES	logD
Cc1cc(OS(N)(=O)=O)ccc1N(C)C(=O)c1ccc(-c2cc(C)c(O)c(C)c2)o1	2.2

System: not listed separately
Assay: Aqueous solubility of compound in PBS measured after 1 to 24 hrs
Type: physicochemical
Conditions: time 1-24 hrs

SMILES	solubility
Cc1cc(OS(N)(=O)=O)ccc1N(C)C(=O)c1ccc(-c2cc(C)c(O)c(C)c2)o1	40 µM (≈ 17.2 µg/mL)

System: not listed separately
Assay: Oral bioavailability in C57BL/6 mouse at 50 mg/kg administered as single dose measured after 24 hrs by HPLC-MS/MS analysis
Type: ADME, organism-based
Conditions: in vivo

SMILES	bioavailability
Cc1cc(OS(N)(=O)=O)ccc1N(C)C(=O)c1ccc(-c2cc(C)c(O)c(C)c2)o1	1.5%

System: not listed separately
Assay: Cmax in C57BL/6 mouse at 50 mg/kg, sc administered as single dose ever day measured after 2 hrs by HPLC-MS/MS analysis
Type: ADME, organism-based
Design: dose 50 mg/kg, time 2 hrs, route sc
Conditions: in vivo

SMILES	Cmax
Cc1cc(OS(N)(=O)=O)ccc1N(C)C(=O)c1ccc(-c2cc(C)c(O)c(C)c2)o1	2350 nM

System: not listed separately
Assay: Cmin in C57BL/6 mouse at 50 mg/kg, sc administered as single dose ever day measured after 24 hrs by HPLC-MS/MS analysis
Type: ADME, organism-based
Conditions: in vivo, read-out: Cmin

SMILES	concentration at 24 h
Cc1cc(OS(N)(=O)=O)ccc1N(C)C(=O)c1ccc(-c2cc(C)c(O)c(C)c2)o1	800 nM
